Measurements as given in patent US7476650B2, “Enzyme inhibition” (Yale University, priority 1999, dated 2009).
Each block holds one molecule with its values, some of them ahead of it. Where a SMILES comes first, the peptide text is derived from it. The star is where a group is joined. X1 = CC(C)C[C@H](N*)C(=O)[C@@]1(C)CO1

How the values were obtained:
[1] = target: T1, chymotrypsin-like activity of purified bovine erythrocyte 20S proteasome (Bos taurus, UniProt Q32KL2); assay: Enzyme kinetic assay, chymotrypsin-like activity (Suc-LLVY-AMC); format: biochemical; conditions: for kinact/KI: pH 8, Table 1, inhibitor concentration range in parentheses, read-out: kobs/[I] Chymotrypsin-like activity; for kobs/[I] for chymotryptic-like activity using Suc-LLVY-AMC: Examples 9 and 10, in M-1s-1; for kassoc = kobs/[I] (chymotrypsin-like activity inhibition): Table 5; for kobs/[I] Chymotrypsin-like: Table 3
T1 construct: from tissue; host or cells: bovine erythrocytes (red blood cells)
Text: (§1) We investigated the potency of inhibitors of various length. Mono-, di-,tri- and tetraleucine α′,β′-epoxides were ranked by determination of the kobs/[I] values for inhibition of the chymotrypsin-like, trypsin-like, and PGPH activities of purified bovine erythrocyte 20S proteasome.
(§2) Purified bovine erythrocyte proteasome was enzymatically assayed using a variety of different substrates and inhibitors. In order to evaluate the rates of proteolytic inactivation by inhibitors, kassociation (kobs/[I]) values were determined using fluorogenic peptide substrates over a range of inhibitor concentrations.

[2] = target: T2, PGPH activity of purified bovine erythrocyte 20S proteasome (Bos taurus, UniProt Q3MHN0); assay: Enzyme kinetic assay, PGPH activity (Z-LLE-AMC); format: biochemical; conditions: for kinact/KI: pH 8, Table 1, inhibitor concentration range in parentheses, read-out: kobs/[I] PGPH activity; for kobs/[I] for PGPH activity using Z-LLE-AMC: Examples 9 and 10; for kobs/[I] PGPH: Table 3; for selectivity for the PGPH activity: in words, data not shown for Glu compounds
T2 construct: from tissue; host or cells: bovine erythrocytes (red blood cells)
Method: as §1, with “proteasome. Enzyme kinetic assays were performed as described in Example 2.” for “proteasome.”
as §2

[3] = target: T3, trypsin-like activity of purified bovine erythrocyte 20S proteasome (Bos taurus, UniProt Q2TBP0); assay: Enzyme kinetic assay, trypsin-like activity (Boc-LRR-AMC); format: biochemical; conditions: for kobs/[I] for tryptic-like activity using Boc-LRR-AMC: Examples 9 and 10; for kobs/[I] Trypsin-like: Table 3
T3 construct: from tissue; host or cells: bovine erythrocytes (red blood cells)
Text: as §1, §2

[4] = system: bovine aortic endothelial (BAE) cells; assay: BAE cell proliferation ([methyl-3H]-thymidine incorporation); format: cell-based
Method: BAE cells were cultured at 7% CO2 and were grown in DMEM supplemented with 10% FBS, 1% penicillin/streptomycin (GIBCO), and 1 mM sodium pyruvate.
Approximately 1000 BAE cells were plated into each well of a 96-well culture plate. After an overnight incubation, different concentrations of proteasome inhibitors were added and incubation was continued for another five days. […] Subsequently, 74 kBq of [methyl-^3H]-thymidine was added to each well of the plate and the plate was incubated for another additional 4 hours. Cells were harvested using a Skatron Cell Harvester and incorporated radioactivity was quantified using liquid scintillation. Proliferation of BAE cells was assayed in triplicate in the presence of different concentrations of peptide epoxides.
Perturbation of the proteasome activity can result in inhibition of cell growth, and can further lead to cell death at elevated concentration of the proteasome inhibitors. This provides an excellent cell-based assay to assess the importance of each catalytic activity of the 20S proteasome in degradation of proteins involved in cell growth. We measured inhibition of proliferation of bovine aortic endothelial (BAE) cells with our α′,β′-epoxyketone-based inhibitors with varying degree of specificity for the PGPH activity.

kobs/[I] for chymotryptic-like activity using Suc-LLVY-AMC [1]: 5,300
kassoc = kobs/[I] (chymotrypsin-like activity inhibition) [1]: 5300 M⁻¹ s⁻¹
kobs/[I] for PGPH activity using Z-LLE-AMC [2]: 220
kobs/[I] for tryptic-like activity using Boc-LRR-AMC [3]: 3.8 M⁻¹ s⁻¹
SMILES: CC(=O)N[C@@H](C)C(=O)N[C@@H](CC(C)C)C(=O)N[C@@H](CC(C)C)C(=O)N[C@@H](CC(C)C)C(=O)[C@@]1(C)CO1 [Ac-ALLL-epoxide]
IC50 ([4]; Table 5, five days incubation): 83 nM

kobs/[I] Chymotrypsin-like [1]: 170 ± 60 M⁻¹ s⁻¹
kobs/[I] PGPH [2]: 170 ± 30 M⁻¹ s⁻¹
kobs/[I] Trypsin-like [3]: 1.3 ± 0.3 M⁻¹ s⁻¹
SMILES: CC(=O)NCC(=O)NCC(=O)N1CCC[C@H]1C(=O)N[C@@H](Cc1ccccc1)C(=O)N[C@@H](CC(C)C)C(=O)[C@@]1(C)CO1 [Ac-GGPFL-Ex] (Ac-GGPF-X1)

kobs/[I] Chymotrypsin-like [1]: 5 ± 1 M⁻¹ s⁻¹
selectivity: fold higher kobs/[I] for inhibition of the PGPH activity than the chymotrypsin-like activity ([2]; PGPH vs chymotrypsin-like): 35 fold
kobs/[I] PGPH [2]: 190 ± 10 M⁻¹ s⁻¹
inhibition of the trypsin-like activity of the proteasome ([3]; in words): no inhibition
SMILES: CC(=O)NCC(=O)N1CCC[C@H]1C(=O)N[C@@H](Cc1ccccc1)C(=O)N[C@@H](CC(C)C)C(=O)C1(C)CO1 (stereo partly drawn) [Ac-GPFL-Ex]
IC50 ([4]; Table 6, PGPH-directed inhibitors): 58000 nM

kobs/[I] for chymotryptic-like activity using Suc-LLVY-AMC [1]: 1,300
kassoc = kobs/[I] (chymotrypsin-like activity inhibition) [1]: 1300 M⁻¹ s⁻¹
kobs/[I] for PGPH activity using Z-LLE-AMC [2]: 130
kobs/[I] for tryptic-like activity using Boc-LRR-AMC [3]: 2 M⁻¹ s⁻¹
SMILES: CC(=O)N[C@@H](CC(C)C)C(=O)N[C@@H](C)C(=O)N[C@@H](CC(C)C)C(=O)N[C@@H](CC(C)C)C(=O)[C@@]1(C)CO1 [Ac-LALL-epoxide]
IC50 ([4]; Table 5, five days incubation): 700 nM

kobs/[I] Chymotrypsin-like [1]: 42 ± 2 M⁻¹ s⁻¹
kobs/[I] PGPH [2]: 32 ± 6 M⁻¹ s⁻¹
SMILES: CC(=O)N1CCC[C@H]1C(=O)N[C@@H](Cc1ccccc1)C(=O)N[C@@H](CC(C)C)C(=O)[C@@]1(C)CO1 [Ac-PFL-Ex]

kobs/[I] Chymotrypsin-like [1]: 6.4 ± 3.3 M⁻¹ s⁻¹
kobs/[I] PGPH [2]: 10.6 ± 0.3 M⁻¹ s⁻¹
SMILES: CC(=O)N1CCC[C@H]1C(=O)N1CCC[C@H]1C(=O)N[C@@H](Cc1ccccc1)C(=O)N[C@@H](CC(C)C)C(=O)[C@@]1(C)CO1 [Ac-PPFL-Ex]

More lines, now with the values behind:

SMILES: CC(=O)N[C@@H](CC(C)C)C(=O)N[C@@H](CC(C)C)C(=O)N[C@@H](CC(C)C)C(=O)N[C@@H](CC(C)C)C(=O)[C@@]1(C)CO1
kinact/KI [1]: 14000 M⁻¹ s⁻¹
kinact/KI [2]: 9.2 M⁻¹ s⁻¹
kobs/[I] for tryptic-like activity using Boc-LRR-AMC [3]: not measurable

SMILES: CC(=O)N[C@@H](CC(C)C)C(=O)N[C@@H](CC(C)C)C(=O)N[C@@H](CC(C)C)C(=O)[C@@]1(C)CO1
kinact/KI [1]: 780 M⁻¹ s⁻¹
kinact/KI [2]: 120 M⁻¹ s⁻¹
kinact/KI ([3]; pH 8, Table 1, inhibitor concentration range in parentheses, read-out: kobs/[I] trypsin-like activity): 5.1 M⁻¹ s⁻¹

SMILES: CC(=O)N[C@@H](CC(C)C)C(=O)N[C@@H](CC(C)C)C(=O)[C@@]1(C)CO1
kinact/KI [1]: 3.1 M⁻¹ s⁻¹

SMILES: CC(=O)N[C@@H](C)C(=O)N[C@H](C(=O)N[C@@H](CC(C)C)C(=O)[C@@]1(C)CO1)C(C)C [Ac-AVL-Ex]
kobs/[I] Chymotrypsin-like [1]: 10.8 ± 0.2 M⁻¹ s⁻¹
kobs/[I] PGPH [2]: 12.7 ± 1.3 M⁻¹ s⁻¹
kobs/[I] Trypsin-like [3]: 1.8 ± 0.1 M⁻¹ s⁻¹

SMILES: CC(=O)N[C@@H](C)C(=O)N[C@H](C(=O)N[C@@H](CCC(=O)O)C(=O)[C@@]1(C)CO1)C(C)C [Ac-Ala-Val-Glu-α′,β′-epoxyketone]
selectivity for the PGPH activity [2]: did not display any significant selectivity

SMILES: CC(=O)NCC(=O)N1CCC[C@H]1C(=O)N[C@@H](Cc1ccccc1)C(=O)N[C@@H](CCC(=O)O)C(=O)[C@@]1(C)CO1 [Ac-Gly-Pro-Phe-Glu-α′,β′-epoxyketone]
selectivity for the PGPH activity [2]: did not display any significant selectivity

SMILES: CC[C@H](C)[C@H](NC(C)=O)C(=O)N[C@H](C(=O)N[C@@H](CC(C)C)C(=O)[C@@]1(C)CO1)C(C)C [Ac-IVL-Ex]
kobs/[I] Chymotrypsin-like [1]: 5 ± 0.1 M⁻¹ s⁻¹
kobs/[I] PGPH [2]: 14.6 ± 4.2 M⁻¹ s⁻¹
kobs/[I] Trypsin-like [3]: 6.7 ± 0.1 M⁻¹ s⁻¹

SMILES: CC[C@H](C)[C@H](NC(C)=O)C(=O)N[C@H](C(=O)N[C@H](C(=O)N[C@@H](CCC(=O)O)C(=O)[C@@]1(C)CO1)[C@@H](C)O)[C@@H](C)CC [Ac-Ile-Ile-Thr-Glu-α′,β′-epoxyketone]
selectivity for the PGPH activity [2]: did not display any significant selectivity

SMILES: CC[C@H](C)[C@H](NC(C)=O)C(=O)N[C@H](C(=O)N[C@@H](CCC(=O)O)C(=O)[C@@]1(C)CO1)C(C)C [Ac-Ile-Val-Glu-α′,β′-epoxyketone]
selectivity for the PGPH activity [2]: did not display any significant selectivity
